Laboratory results from US11628208B2, “System and method for microneedle delivery of microencapsulated vaccine and bioactive proteins” (priority 2015, dated 2023).

Legend:
[1] = test system: RAW 264.7 cells; experiment: MTS cell cytotoxicity assay; assay type: cell-based, mouse; conditions: 10 mg/mL, positive control, relative to DMEM-treated cells
Experimental: Particles were tested for their cytotoxic properties using MTS assay (Promega), which determines cell viability in culture. RAW 264.7 cells (mouse leukemic monocyte macrophage cell line) were grown in DMEM medium, supplemented with 10% fetal bovine serum and 1% antibiotic in a cell culture flask. The cell culture media was then removed and cells were treated with 2 mL trypsin-EDTA. Thus, cells were detached from the cell culture flask and suspended in 1 mL complete DMEM media. Cell count of the resulting suspension was determined by trypan blue dye exclusion method using Bio-Rad counter (TC10™ Automated cell counter, Bio-Rad, CA). Cell suspension equivalent to 10,000 cells was plated in a 96 well cell culture plate and complete DMEM media was added to attain a volume of 100 μL per well. Plate was incubated for 24 h and various concentrations (2, 1, 0.5, 0.25, 0.125, 0.0625 mg/mL) of 4T07 antigen loaded particles were added to wells (n=3 for each concentration) and again incubated for 24 h. Cells treated with DMEM media alone were used as a negative control and cells treated with benzalkonium chloride (10 mg/ml) were chosen as a positive control (n=3 each). […] The plate was incubated for 4 h at 37° C. in a humidified, 5% CO2 chamber and absorbance was recorded at 490 nm using a UV plate reader (BioTek instruments Inc., VT).

[2] = test system: dendritic cells (DC 2.4); experiment: Nitric oxide release from dendritic cells exposed to RSV F-VLP vaccine; assay type: cell-based
Experimental: For in vitro analysis of immunogenicity of the F-VLP, dendritic cells (DC 2.4) were cultured and exposed to varying concentrations of the vaccine. The optimal concentration was then used to screen four different adjuvants (Poly I:C, Alum, MPL and MF59). Evaluation of innate and adaptive immunity was done using the nitric oxide assay and expression of cell surface markers using the C6 flow cytometer.
a. Following exposure to an antigen, dendritic cells (DC 2.4) are known to release nitric oxide and express cell surface markers that signal CD4+ Helper T cells and/or CD8+ Cytotoxic T cells.

[3] = test system: CD4+ and CD8+ T cell populations; experiment: CD4/CD8 population analysis of splenocytes incubated with stimulated APCs; assay type: cell-based, Swiss Webster mice; conditions: 5 days
Experimental: The spleens were collected from the same mice that were harvested APCs from the intraperitoneal cavity, and the single-cell suspensions of the spleens were introduced into the stimulated APCs with a ratio of 1:1 (splenocytes:APCs). After a five-day incubation at 37° C. and 5% CO2, the splenocytes were harvested from the supernatant, washed with Hank's balanced salt solution and labeled with anti-mouse CD4 PE and anti-mouse CD8a FITC. The cells were analyzed for CD4^+ and CD8^+ T cell populations using BD Accuri® C6 flow cytometer.

[4] = test system: APCs; experiment: Nitric oxide assay (Greiss) on harvested APCs; assay type: cell-based, Swiss Webster mice; conditions: 2.5 μg adjuvant in MP + 2.5 μg M2p in MP, 20 hours
Experimental: 5 Sodium thioglycolate was injected into the intraperitoneal cavity of Swiss Webster (6-8 week old) with the amount of 40 mg per mouse to recruit the APCs (13)(14). After four days, these mice were euthanized and 5.0 mL of PBS was injected intraperitoneally into each mouse to harvest cells from the cavity. Collected cells were washed with PBS twice before adding the complete RPMI media. After these APCs adhered to the bottom of a T75 flask, the supernatant was removed and complete RPMI media was added in the presence of ConA ([…]).
The harvested APCs (5×10^4 cells/well) were seeded in Dulbecco's complete media in a 96 well plate. The soluble and particulate vaccines (with and without adjuvants) were introduced to the APCs with the same amount of antigen (2.5 μg) and adjuvant (2.5 μg). The induced APCs were incubated for 20 hours at 37° C. % CO2. Supernatants were collected and the amount of nitric oxide released in each group was analyzed using the Greiss chemical method (equal volumes of 1% sulphanilamide and 0.1% N-(1-naphthylethylenediamine)). The plate was read at a wavelength of 540 nm (15).

## CCCCCCCCCCCCC[N+](C)(C)Cc1ccccc1 [benzalkonium chloride]
[1]
  cell viability: 21%

## Poly I:C
[2]
  amount of nitric oxide released, vaccine with adjuvant compared to vaccine alone: much higher compared to vaccine alone

## monophospholyl lipid A [MPL]
[3]
  CD8+ T cell population compared to M2p MP treated group: elevated

B1: Flagellin: flagellin from Salmonella typhimurium, adjuvant in microparticles (protein, UniProt P06179 2-495, looked up)
Flagellin: AQVINTNSLSLLTQNNLNKSQSALGTAIERLSSGLRINSAKDDAAGQAIANRFTANIKGLTQASRNANDGISIAQTTEGALNEINNNLQRVRELAVQSANSTNSQSDLDSIQAEITQRLNEIDRVSGQTQFNGVKVLAQDNTLTIQVGANDGETIDIDLKQINSQTLGLDTLNVQQKYKVSDTAATVTGYADTTIALDNSTFKASATGLGGTDQKIDGDLKFDDTTGKYYAKVTVTGGTGKDGYYEVSVDKTNGEVTLAGGATSPLTGGLPATATEDVKNVQVANADLTEAKAALTAAGVTGTASVVKMSYTDNNGKTIDGGLAVKVGDDYYSATQNKDGSISINTTKYTADDGTSKTALNKLGGADGKTEVVSIGGKTYAASKAEGHNFKAQPDLAEAAATTTENPLQKIDAALAQVDTLRSDLGAVQNRFNSAITNLGNTVNNLTSARSRIEDSDYATEVSNMSRAQILQQAGTSVLAQANQVPQNVLSLLR
[4]
  nitric oxide level compared to M2p MP group: significantly higher
[3]
  CD4+ T cell population compared to M2p MP treated group: elevated CD4+ T cell population
